pIC50: −log10 of the molar value.
Columns and labels:
human CYP3A4 = target: T1, human CYP3A4 (Homo sapiens, UniProt P08684); assay: Inhibitory activity against human CYP3A4 (7-benzyloxyquinoline substrate, expression system microsome); type: in vitro ADME; details: substrate 7-BQ 40 μM, expression system microsome 0.25 mg/mL, 30 minutes incubation, fluorescence
T1 construct: purchased Daiichikagakuyakuhin
Protocol: Inhibitory activity against human CYP3A4 of the compound of the present invention can be evaluated by an improved method described in Drug Metabolism and Disposition, Vol. 28(12), 1440-1448 (2000).
For example, a reaction solution consisted of potassium phosphate buffer (pH 7.4) (final concentration: 200 mM), magnesium chloride hexahydrate (final concentration: 5 mM), substrate (7-benzyloxyquinoline (7-BQ), final concentration: 40 μM), and expression system microsome (Daiichikagakuyakuhin, final concentration: 0.25 mg/mL) was prepared. 100 μL of the reaction solution is dispensed in 96 well plate, and added by 50 μL of an aqueous solution containing test a compound and 0.8% acetonitrile, to carry out 10 minutes of preincubation at 37° C. 50 μL of a reduced nicotinamide adenine dinucleotide phosphate (NADPH, 4 mM) is added to initiate a reaction. The fluorescence intensity of each well was measured at the time when NADPH was added and after incubated for 30 minutes. Excitation wavelength at 409 nm and emission wavelength at 530 nm of quinolinol, which is metabolite of substrate, was measured. Inhibition ratio (%) of the test compound was calculated by the following calculation formula to obtain IC50 value. Inhibition ratio(%)=[1−{(measured value when a test compound is added)−(blank value)/(control value−blank value)}]×100

human CCR5 = human CCR5 (Homo sapiens, UniProt P51681); assay: CCR5 binding test ([125I]MIP-1β binding inhibition); details: inhibition of [125I]MIP-1β (0.1 nM) binding to membrane fraction of human CCR5 stably over-expressing CHO-K1 cell, 25° C., 120 minutes
Chain of human CCR5 (P51681 whole entry): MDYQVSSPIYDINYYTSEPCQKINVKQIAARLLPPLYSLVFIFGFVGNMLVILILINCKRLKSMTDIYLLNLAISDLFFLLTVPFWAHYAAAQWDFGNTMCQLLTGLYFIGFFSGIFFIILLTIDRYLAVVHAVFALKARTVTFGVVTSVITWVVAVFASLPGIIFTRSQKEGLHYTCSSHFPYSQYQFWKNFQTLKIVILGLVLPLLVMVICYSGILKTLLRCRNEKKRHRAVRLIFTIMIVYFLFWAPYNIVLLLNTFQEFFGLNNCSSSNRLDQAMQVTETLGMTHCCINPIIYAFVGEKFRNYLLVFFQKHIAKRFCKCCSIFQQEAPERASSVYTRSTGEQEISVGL
Protocol: A membrane fraction of the human CCR5 stably over-expressing CHO-K1 cell was suspended in assay buffer (50 mM HEPES/0.5% BSA/1 mM calcium chloride/5 mM magnesium chloride, pH 7.4) and dispensed in a 48 well polypropylene plate with U-shaped bottom in the amount corresponding to 1 μg of protein/well. Then, an unlabelled ligand was added so as to obtain a concentration of 0.1 μM in a non-specific binding group, while a compound was added so as to obtain a final concentration of 0.003 to 0.3 μM in a compound group. Subsequently, [^125I]MIP-1β was added so as to obtain a final concentration of 0.1 nM and a mixture thereof was incubated at 25° C. for 120 minutes. The membrane fraction was trapped with a filter, washed, and then radioactivity of [^125I]MIP-1β was measured by a γ counter.
Inhibition ratio (%) of the test compound was calculated by the following calculation formula. Inhibition ratio=[(Ec−Ea)/Ec]×100 • Ec: Radioactivity of when DMSO control solution is added−radioactivity of non-specific binding group • Ea: Radioactivity of when test compound is added−radioactivity of non-specific binding group

T1 sequence (P08684 whole entry): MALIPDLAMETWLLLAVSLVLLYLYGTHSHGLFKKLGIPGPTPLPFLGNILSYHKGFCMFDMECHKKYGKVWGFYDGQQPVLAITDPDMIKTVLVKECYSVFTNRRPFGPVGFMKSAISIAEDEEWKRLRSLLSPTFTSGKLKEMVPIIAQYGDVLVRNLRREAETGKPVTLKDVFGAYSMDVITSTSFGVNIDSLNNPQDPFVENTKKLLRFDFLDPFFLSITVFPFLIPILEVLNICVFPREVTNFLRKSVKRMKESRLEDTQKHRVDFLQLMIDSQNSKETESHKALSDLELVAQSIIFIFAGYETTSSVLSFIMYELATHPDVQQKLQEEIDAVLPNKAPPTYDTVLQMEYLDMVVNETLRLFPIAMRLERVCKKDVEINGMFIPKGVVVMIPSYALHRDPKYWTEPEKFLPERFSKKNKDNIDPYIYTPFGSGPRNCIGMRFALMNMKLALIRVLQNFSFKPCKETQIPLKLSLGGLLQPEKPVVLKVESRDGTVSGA

SMILES	pIC50 (human CYP3A4)	pIC50 (human CCR5)
CCCCN(C(=O)Nc1cc(C(N)=O)c(F)cc1F)C1CCN(Cc2ccc(Oc3ccc(C(=O)N4CCN(C(C)=O)CC4)cc3)nc2C)CC1 [Example 16(60), 5-{[{1-[(6-{4-[(4-acetyl-1-piperazinyl)carbonyl]phenoxy}-2-methyl-3-pyridinyl)methyl]-4-piperidinyl}(butyl)carbamoyl]amino}-2,4-difluorobenzamide]	≤ 4.52	
CCCCN(C(=O)Nc1cc(C(N)=O)c(F)cc1F)C1CCN(Cc2ccc(Oc3ccc(C(=O)N(C)C)cc3)nc2C)CC1 [Example 16(61), 5-({butyl[1-({6-[4-(dimethylcarbamoyl)phenoxy]-2-methyl-3-pyridinyl}methyl)-4-piperidinyl]carbamoyl}amino)-2,4-difluorobenzamide]	≤ 4.52	≥ 7.00
CCCCN(C(=O)Nc1cc(C(N)=O)c(F)cc1F)C1CCN(Cc2ccc(Oc3ccc(C(=O)NCC)cc3)nc2C)CC1 [Example 16(62), 5-({butyl[1-({6-[4-(ethylcarbamoyl)phenoxy]-2-methyl-3-pyridinyl}methyl)-4-piperidinyl]carbamoyl}amino)-2,4-difluorobenzamide]		≥ 7.00
CCCCN(C(=O)Nc1cc(C(N)=O)c(F)cc1F)C1CCN(Cc2ccc(Oc3ccc(C(=O)N4CCN(C)CC4)cc3)nc2C)CC1 [Example 16(63), 5-[(butyl {1-[(2-methyl-6-{4-[(4-methyl-1-piperazinyl)carbonyl]phenoxy}-3-pyridinyl)methyl]-4-piperidinyl}carbamoyl)amino]-2,4-difluorobenzamide]	≤ 4.52	

Reference: patent US8003642B2, “Nitrogenated heterocyclic derivative, and pharmaceutical agent comprising the derivative as active ingredient” (Ono Pharmaceutical Co., Ltd., priority 2006, dated 2011)
